From patent US20250296937A1, “CYCLIC BISBENZYL TETRAHYDROISOQUINOLINE COMPOUND, AND PREPARATION METHOD THEREFOR AND USE THEREOF” (Shanghai Institute of Materia Medica, Chinesse Academy of …, priority 2021, published 2025)
Entries after “also recorded” stand apart in the source; their conditions may differ. Where two headings read alike, the source gives them in different places.

Experiments:
Raw 264.7 cells = experiment: Cell viability in TNF-α induced inflammation model of Raw 264.7 cells (CCK-8); type: cell-based; conditions: 10 ng/ml TNF-α, 1 μM compound, 16 hours
Protocol: In this embodiment, the effect of compounds on TNF-α-induced inflammation levels in Raw 264.7 cells was analyzed by cell viability combined with inflammatory factor expression levels; cell viability was analyzed by CCK-8 assay; and mRNA expression levels of inflammation-associated indicators were detected by real-time quantitative PCR (Q-PCR) method. Raw 264.7 cells were purchased from ATCC, CCK-8 kit was purchased from Meilunbio, item number MA0218-3, TNF-α was purchased from Merck, item no. GF314.
Experimental methods: first, 8000 cells/well Raw 264.7 cells were placed in 96-well plates and incubated overnight. On the second day, 0.1% DMSO was added to the control cells, 10 ng/ml TNF-α as well as 0.1% DMSO was added to the model group, 10 ng/ml TNF-α as well as 1 μM of the compounds (oxyacanthine hydrochloride (oxy), 1, 2, tetrandrine (tet), 3, 4, 6, 58) was added to the treatment group, and the 96-well plates were sterilized and incubated in a constant temperature incubator for 16 hours. Finally, the viability of the cells was detected using the CCK-8 kit.

hERG potassium channel = target: T1, hERG potassium channel (Homo sapiens, UniProt Q12809); experiment: hERG potassium channel whole-cell membrane clamp in CHO cells; type: cell-based; conditions: for IC50: CHO cells stably expressing hERG, whole-cell membrane clamp
T1 construct: expressed in transfected cells
Protocol: Compounds were given for at least 1 min for each tested concentration, and at least 2 cells (n≥2) were tested per concentration.

[1] = tested on: IL-6, IL-1β, CXCL9 mRNA in Raw 264.7 cells; experiment: mRNA levels of inflammatory indicators in LPS-induced inflammation model of Raw264.7 cells (Q-PCR); type: cell-based; conditions: 1 μg/ml LPS, 1 μM compound, 16 hours
Protocol: In this example, the effect of the compounds of the present invention on the inflammation level of the LPS-induced inflammation model of Raw 264.7 cells was analyzed by cell viability in combination with inflammatory factors; cell viability was analyzed by CCK-8 assay; and mRNA expression levels of inflammation-related indicators were detected by a real-time quantitative PCR (Q-PCR) method. Raw 264.7 cells were purchased from ATCC; CCK-8 kit was purchased from Meilunbio, item no. MA0218-3; LPS was purchased from Sigma, item no. L2630.
Experimental methods: first, 5*10^4 cells/well Raw 264.7 cells were placed in 12-well plates and incubated overnight. On the second day, 0.1% DMSO was added to the control cells, 1 μg/ml LPS as well as 0.1% DMSO was added to the model group, 1 μg/ml LPS as well as 1 μM of the compounds (oxyacanthine hydrochloride (oxy), 1, 2, tetrandrine (tet), 3, 4, 6, 58) was added to the treatment group, and the 12-well plates were sterilized and incubated in a constant temperature incubator for 16 hours. Cellular mRNA was extracted by lysis using Trizol (Yisheng, 10606ES60) and detected by real-time quantitative PCR after reverse transcription.

ALM12 hepatocytes = experiment: Anti H2O2-induced necrotic injury assay in ALM12 hepatocytes (microscopy, CCK-8); type: cell-based; conditions: 2 mM H2O2, 1 μM compound, 3 hours, microscope and CCK-8
Protocol: In this example, the effect of the compounds of the present invention on the level of necrotic injury induced by H2O2 in ALM12 hepatocytes was analyzed by microscopic morphological observations, cell viability in combination with cell death-associated molecules. Cell viability was analyzed by CCK-8 assay. ALM12 cells were cultured in 1640 medium (gibco, c11995500BT)+10% FBS (gibco, 10099141C) in a constant temperature incubator at 37° C., 5% CO2; the CCK-8 kit was purchased from Meilunbio, item no. MA0218-3; H2O2 was purchased from Sinopharm Chemical Reagent Co. item no. 10011208.
Experimental methods: first, 8000 cells/well ALM12 cells were placed in 96-well plates and incubated overnight. On the second day, 0.1% DMSO was added to the control cells, 2 mM H2O2 as well as 0.1% DMSO was added to the model group, 2 mM H2O2 as well as 1 μM of the compounds (oxy, 1, 2, tet, 3, 4, 6, 58) was added to the treatment group, and the 96-well plates were sterilized and incubated in a constant temperature incubator for 3 hours. Finally, cell injury and growth were observed using a microscope; the viability of the cells was detected by CCK-8 kit.

hNav1.5 sodium channel [2] = target: T2, hNav1.5 sodium channel (Homo sapiens, UniProt Q14524); experiment: Nav1.5 sodium channel whole-cell membrane clamp in CHL cells
Description: (§1) Nav1.5: CHL cells stably expressing hNav1.5 sodium channel was used to record hNav1.5 sodium channel currents by whole-cell membrane clamp technique at room temperature. The glass microelectrodes were made from glass electrode blanks (BF150-86-10, Sutter) by pulling through a puller, and the tip resistance was about 2-5 MΩ after filling the electrode with internal fluid, and the glass microelectrodes were connected to Axopatch 200B (Molecular Devices) membrane clamp amplifier by inserting the glass microelectrodes into the amplifier probe. Clamp voltage and data recording were controlled and recorded by pClamp 10 software via a computer with a sampling frequency of 10 kHz and a filtering frequency of 2 kHz. After obtaining whole-cell recordings, the cells were clamped at −80 mV, given a hyperpolarizing voltage of 200 ms to −120 mV, and then depolarized to −20 mV for 20 ms to evoke a Nav1.5 current. This voltage stimulus was given every 10 s; after the hNav1.5 sodium current was determined to be stabilized (for at least 1 min), begins the dosing process. Concentrations of the sample to be tested were administered continuously starting from low test concentration, and each test concentration was given for 1 min to reach steady state of action or for a maximum of 3 min. A minimum of 3 cells (n≥3) were tested at each concentration of the sample to be tested, and a minimum of 2 cells (n≥2) were tested at each concentration of the positive control.
(§2) Extracellular fluid formulation (mM): 140 NaCl, 5 KCl, 1 CaCl2, 1.25 MgCl2, 10 HEPES and 10 Glucose, adjusting the pH to 7.4 with NaOH.
(§3) Intracellular fluid formulation (mM): 130 CsF, 10 NaCl, 10 EGTA and 10 HEPES, adjusting the pH to 7.2 with CsOH.

[3] = tested on: Th1/Th17 differentiation of CD4+T cells; experiment: CD4+T cell in vitro differentiation assay (Th1 IFN-γ / Th17 IL-17A, flow cytometry); parameters: inhibitory effect on Th1/Th17 differentiation at lower concentration: dose or concentration left out as unconfirmed; conditions: 72 h; for inhibitory effect on Th1/Th17 differentiation: 10 μM, IFN-γ/IL-17A by flow cytometry
Protocol: CD4^+T cell isolation: CD4^+T cells were isolated from the spleens of 7-8 week old C57BL/6 mice using the Mouse CD4^+T Cell Sorting Kit (Dynabeads® Untouched™ Mouse CD4 Cells Isolation Kit, Invitrogen, Catalog nos: 11415D).
In vitro differentiation of CD4^+T cells: the isolated CD4^+T cells were inoculated into 96-well plates while different concentrations of compounds were added, and then corresponding cytokines and antibodies were added: anti-CD28 (2 μg/ml), anti-CD3 (2 μg/ml), Anti-IL-4 (10 μg/ml), IL-12 (10 ng/ml), Anti-IFN-γ (10 μg/ml), anti-IL-4 (10 μg/ml), IL-6 (30 ng/ml), TGF-β1 (3 ng/ml), IL-10 (10 ng/ml), IL-23 (10 ng/ml), and TNF-α (10 ng/ml). Cells were cultured in 5% CO2 at 37° C. in a cell culture chamber for 72 h. Cells were collected, stained intracellularly, analyzed by flow cytometry, and tested for IFN-γ/IL-17A content to assess the effect of compounds on CD4^+T differentiation into Th1/Th17 in vitro.

hNav1.5 sodium channel [4] = target: T2, hNav1.5 sodium channel
Description: as §1, §2, §3

[5] = tested on: 2019 novel coronavirus (SARS-CoV-2) original strain; experiment: Replication inhibitory activity against SARS-CoV-2 original strain in Vero E6 cells (qRT-PCR); type: cell-based; conditions: read-out: Inhibition against viral replication of the original strain EC50
HCoV OC43 virus = experiment: Inhibition against HCoV OC43 virus replication; type: cell-based, human coronavirus HCoV OC43; conditions: for EC50: Betacoronavirus 1, OC43

T1 sequence (Q12809 whole entry): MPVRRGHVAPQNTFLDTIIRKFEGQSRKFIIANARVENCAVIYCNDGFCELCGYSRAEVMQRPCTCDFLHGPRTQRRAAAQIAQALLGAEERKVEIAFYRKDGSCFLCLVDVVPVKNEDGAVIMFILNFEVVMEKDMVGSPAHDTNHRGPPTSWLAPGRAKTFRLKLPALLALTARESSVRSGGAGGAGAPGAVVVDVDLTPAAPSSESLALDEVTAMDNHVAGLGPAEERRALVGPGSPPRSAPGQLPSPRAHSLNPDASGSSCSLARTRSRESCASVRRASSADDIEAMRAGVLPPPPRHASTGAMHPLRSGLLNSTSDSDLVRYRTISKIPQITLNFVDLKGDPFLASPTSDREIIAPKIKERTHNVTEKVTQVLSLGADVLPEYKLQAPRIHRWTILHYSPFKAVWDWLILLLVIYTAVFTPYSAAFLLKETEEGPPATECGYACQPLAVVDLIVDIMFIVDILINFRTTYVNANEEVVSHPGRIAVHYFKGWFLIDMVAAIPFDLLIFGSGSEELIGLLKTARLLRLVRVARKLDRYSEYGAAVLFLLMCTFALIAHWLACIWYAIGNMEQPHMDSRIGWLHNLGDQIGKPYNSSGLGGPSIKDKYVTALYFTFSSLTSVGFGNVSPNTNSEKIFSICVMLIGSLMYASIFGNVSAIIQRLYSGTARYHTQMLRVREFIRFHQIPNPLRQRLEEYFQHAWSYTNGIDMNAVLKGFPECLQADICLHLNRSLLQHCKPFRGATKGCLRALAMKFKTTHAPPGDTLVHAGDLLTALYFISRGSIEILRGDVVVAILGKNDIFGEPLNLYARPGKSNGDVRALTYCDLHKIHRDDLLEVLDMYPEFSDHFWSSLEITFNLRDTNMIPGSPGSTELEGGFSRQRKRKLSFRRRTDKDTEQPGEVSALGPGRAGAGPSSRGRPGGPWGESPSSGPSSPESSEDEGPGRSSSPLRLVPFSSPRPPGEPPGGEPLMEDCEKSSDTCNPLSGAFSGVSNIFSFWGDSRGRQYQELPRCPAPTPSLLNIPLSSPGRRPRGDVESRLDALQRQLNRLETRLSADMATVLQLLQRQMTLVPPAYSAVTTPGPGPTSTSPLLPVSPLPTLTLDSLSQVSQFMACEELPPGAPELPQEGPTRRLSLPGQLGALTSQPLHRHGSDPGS
T2 sequence (Q14524 whole entry): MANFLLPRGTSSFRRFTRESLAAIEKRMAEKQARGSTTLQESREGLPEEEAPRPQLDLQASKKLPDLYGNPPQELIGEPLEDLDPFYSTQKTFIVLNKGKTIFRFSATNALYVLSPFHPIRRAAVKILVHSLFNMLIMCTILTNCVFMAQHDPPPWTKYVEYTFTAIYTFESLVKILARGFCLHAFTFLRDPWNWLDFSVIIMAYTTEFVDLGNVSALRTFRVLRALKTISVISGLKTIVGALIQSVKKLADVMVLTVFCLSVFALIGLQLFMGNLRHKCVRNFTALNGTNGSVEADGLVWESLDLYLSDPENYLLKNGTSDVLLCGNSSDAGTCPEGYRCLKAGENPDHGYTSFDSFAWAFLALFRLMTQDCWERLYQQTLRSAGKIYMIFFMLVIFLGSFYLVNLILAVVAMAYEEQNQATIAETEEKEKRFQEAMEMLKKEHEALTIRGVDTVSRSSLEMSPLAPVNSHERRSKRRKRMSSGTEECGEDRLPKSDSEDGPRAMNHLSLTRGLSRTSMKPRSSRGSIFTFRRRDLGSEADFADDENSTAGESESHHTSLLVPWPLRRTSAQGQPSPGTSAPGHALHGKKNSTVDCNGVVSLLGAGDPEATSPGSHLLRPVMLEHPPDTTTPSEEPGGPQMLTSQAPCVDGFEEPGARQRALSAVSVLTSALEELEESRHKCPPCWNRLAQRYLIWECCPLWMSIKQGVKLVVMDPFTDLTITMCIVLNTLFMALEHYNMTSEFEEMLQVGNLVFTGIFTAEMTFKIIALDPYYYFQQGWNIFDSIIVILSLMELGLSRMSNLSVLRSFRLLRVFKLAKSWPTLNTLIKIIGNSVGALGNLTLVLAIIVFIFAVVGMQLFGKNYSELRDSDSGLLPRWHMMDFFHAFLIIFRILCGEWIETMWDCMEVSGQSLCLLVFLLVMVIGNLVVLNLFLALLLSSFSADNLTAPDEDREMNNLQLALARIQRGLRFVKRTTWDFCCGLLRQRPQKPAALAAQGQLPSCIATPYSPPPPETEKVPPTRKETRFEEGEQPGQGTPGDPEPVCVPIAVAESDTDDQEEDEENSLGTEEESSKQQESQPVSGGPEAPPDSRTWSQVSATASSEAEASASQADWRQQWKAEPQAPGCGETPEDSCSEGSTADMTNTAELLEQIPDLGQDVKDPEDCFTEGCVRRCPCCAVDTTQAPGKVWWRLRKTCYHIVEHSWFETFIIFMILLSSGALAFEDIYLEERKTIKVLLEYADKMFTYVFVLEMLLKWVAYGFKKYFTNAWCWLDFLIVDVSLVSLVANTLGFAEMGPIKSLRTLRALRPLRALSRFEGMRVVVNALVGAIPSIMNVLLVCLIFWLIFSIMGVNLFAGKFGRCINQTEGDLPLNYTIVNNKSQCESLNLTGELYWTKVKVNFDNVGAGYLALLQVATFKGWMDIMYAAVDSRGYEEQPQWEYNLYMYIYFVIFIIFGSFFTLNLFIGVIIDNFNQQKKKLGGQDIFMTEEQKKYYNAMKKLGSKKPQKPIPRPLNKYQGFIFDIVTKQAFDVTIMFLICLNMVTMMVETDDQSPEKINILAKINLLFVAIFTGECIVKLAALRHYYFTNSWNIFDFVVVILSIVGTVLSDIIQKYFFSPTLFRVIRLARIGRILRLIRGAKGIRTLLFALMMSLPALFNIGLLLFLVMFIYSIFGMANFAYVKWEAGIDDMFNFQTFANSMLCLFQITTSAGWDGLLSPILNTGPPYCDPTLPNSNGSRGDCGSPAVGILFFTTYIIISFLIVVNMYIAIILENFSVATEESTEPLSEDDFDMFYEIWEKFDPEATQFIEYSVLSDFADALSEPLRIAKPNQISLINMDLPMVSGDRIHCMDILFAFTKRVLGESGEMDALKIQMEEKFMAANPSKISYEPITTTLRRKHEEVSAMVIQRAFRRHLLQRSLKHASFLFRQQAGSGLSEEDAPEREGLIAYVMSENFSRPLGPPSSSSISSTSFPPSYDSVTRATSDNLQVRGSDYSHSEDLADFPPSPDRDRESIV

Row | Compound | cell viability in TNF-α-induced inflammation model (Raw 264.7 cells) | activity against hERG ion channels (hERG potassium channel) | IC50 (hERG potassium channel) [µM] | inhibition of inflammatory factors (IL-6, IL-1β, CXCL9 mRNA) in LPS-induced inflammation model [1] | alleviation of H2O2-induced ALM12 hepatocyte injury (ALM12 hepatocytes) | IC50 (hNav1.5 sodium channel [2]) [µM] | inhibitory effect on Th1/Th17 differentiation [3] | inhibitory effect on Th1/Th17 differentiation at lower concentration [3] | activity against Nav1.5 channels (hNav1.5 sodium channel [4]) | EC50 ([5]; Severe acute respiratory syndrome coronavirus 2, Vero C1008, 24 h) [nM] | inhibition against human coronavirus HCoV OC43 (HCoV OC43 virus) | EC50 (HCoV OC43 virus) [µM] | IC50 (hERG potassium channel; human, CHO cells stably expressing hERG potassium channels, pH 7.4) [µM] | activity against Nav1.5 channels (hNav1.5 sodium channel [2]) | EC50 ([5]; Severe acute respiratory syndrome coronavirus 2, Vero C1008, Vero E6 cells, MOI 0.01, 24 h p.i., viral copy number by qRT-PCR) [nM]
1 | CCCCNC(=O)Oc1ccc2cc1Oc1ccc(cc1)C[C@H]1c3c(cc(OC)c(OC)c3Oc3cc4c(cc3OC)CCN(C)[C@@H]4C2)CCN1C [Compound 2] | did not affect cell viability | weakly active | 19 | significantly inhibited inflammatory factors; also recorded: significant inhibition | significantly alleviated | > 10 | strong inhibitory effect | strong inhibitory effect | weakly active | 100 to 1000 | strong inhibition | 1.2 |  |  | 
2 | COc1cc2c3cc1Oc1c(OC)c(OC)cc4c1[C@H](Cc1ccc(cc1)Oc1cc(ccc1C(N)=O)C[C@H]3N(C)CC2)N(C)CC4 [Compound 4] | did not affect cell viability | weakly active |  | significantly inhibited inflammatory factors; also recorded: significant inhibition | significantly alleviated | > 50 | strong inhibitory effect |  |  |  | strong inhibition | 5 | 20 | weakly active | 100 to 1000
